Reference: patent US20250163056A1, “NONMUSCLE MYOSIN II INHIBITORS” (The University of Florida Research Foundation, Inc., priority 2018, published 2025)

Key:
[1] = Photostability, percentage remaining undegraded under illumination or in the dark; details: for Photostability 4 hours: percentage remaining undegraded after 4 hours illumination; for Photostability 24 hours: percentage remaining undegraded after 24 hours illumination; for Photostability Dark (24 h): percentage remaining undegraded in the dark
Bovine cardiac myosin = Bovine cardiac myosin (Bos taurus (Bovine), UniProt Q9BE39); experiment: Cardiac muscle myosin II actin-activated ATPase assay (NADH-coupled); assay type: biochemical; design: key to Ratio CMMII:NMII Ki/EC50: NMII-sel: no Ki value for cardiac myosin II could be determined; the compounds had no detectable inhibitory properties versus the cardiac myosin II; details: for Ki: 300 nM cardiac myosin, 10 μM actin, 25° C., read-out: CMMII KI; for Ratio CMMII:NMII Ki/EC50: cardiac myosin II Ki over nonmuscle myosin II EC50
Bovine cardiac myosin, sequence (Q9BE39 whole entry): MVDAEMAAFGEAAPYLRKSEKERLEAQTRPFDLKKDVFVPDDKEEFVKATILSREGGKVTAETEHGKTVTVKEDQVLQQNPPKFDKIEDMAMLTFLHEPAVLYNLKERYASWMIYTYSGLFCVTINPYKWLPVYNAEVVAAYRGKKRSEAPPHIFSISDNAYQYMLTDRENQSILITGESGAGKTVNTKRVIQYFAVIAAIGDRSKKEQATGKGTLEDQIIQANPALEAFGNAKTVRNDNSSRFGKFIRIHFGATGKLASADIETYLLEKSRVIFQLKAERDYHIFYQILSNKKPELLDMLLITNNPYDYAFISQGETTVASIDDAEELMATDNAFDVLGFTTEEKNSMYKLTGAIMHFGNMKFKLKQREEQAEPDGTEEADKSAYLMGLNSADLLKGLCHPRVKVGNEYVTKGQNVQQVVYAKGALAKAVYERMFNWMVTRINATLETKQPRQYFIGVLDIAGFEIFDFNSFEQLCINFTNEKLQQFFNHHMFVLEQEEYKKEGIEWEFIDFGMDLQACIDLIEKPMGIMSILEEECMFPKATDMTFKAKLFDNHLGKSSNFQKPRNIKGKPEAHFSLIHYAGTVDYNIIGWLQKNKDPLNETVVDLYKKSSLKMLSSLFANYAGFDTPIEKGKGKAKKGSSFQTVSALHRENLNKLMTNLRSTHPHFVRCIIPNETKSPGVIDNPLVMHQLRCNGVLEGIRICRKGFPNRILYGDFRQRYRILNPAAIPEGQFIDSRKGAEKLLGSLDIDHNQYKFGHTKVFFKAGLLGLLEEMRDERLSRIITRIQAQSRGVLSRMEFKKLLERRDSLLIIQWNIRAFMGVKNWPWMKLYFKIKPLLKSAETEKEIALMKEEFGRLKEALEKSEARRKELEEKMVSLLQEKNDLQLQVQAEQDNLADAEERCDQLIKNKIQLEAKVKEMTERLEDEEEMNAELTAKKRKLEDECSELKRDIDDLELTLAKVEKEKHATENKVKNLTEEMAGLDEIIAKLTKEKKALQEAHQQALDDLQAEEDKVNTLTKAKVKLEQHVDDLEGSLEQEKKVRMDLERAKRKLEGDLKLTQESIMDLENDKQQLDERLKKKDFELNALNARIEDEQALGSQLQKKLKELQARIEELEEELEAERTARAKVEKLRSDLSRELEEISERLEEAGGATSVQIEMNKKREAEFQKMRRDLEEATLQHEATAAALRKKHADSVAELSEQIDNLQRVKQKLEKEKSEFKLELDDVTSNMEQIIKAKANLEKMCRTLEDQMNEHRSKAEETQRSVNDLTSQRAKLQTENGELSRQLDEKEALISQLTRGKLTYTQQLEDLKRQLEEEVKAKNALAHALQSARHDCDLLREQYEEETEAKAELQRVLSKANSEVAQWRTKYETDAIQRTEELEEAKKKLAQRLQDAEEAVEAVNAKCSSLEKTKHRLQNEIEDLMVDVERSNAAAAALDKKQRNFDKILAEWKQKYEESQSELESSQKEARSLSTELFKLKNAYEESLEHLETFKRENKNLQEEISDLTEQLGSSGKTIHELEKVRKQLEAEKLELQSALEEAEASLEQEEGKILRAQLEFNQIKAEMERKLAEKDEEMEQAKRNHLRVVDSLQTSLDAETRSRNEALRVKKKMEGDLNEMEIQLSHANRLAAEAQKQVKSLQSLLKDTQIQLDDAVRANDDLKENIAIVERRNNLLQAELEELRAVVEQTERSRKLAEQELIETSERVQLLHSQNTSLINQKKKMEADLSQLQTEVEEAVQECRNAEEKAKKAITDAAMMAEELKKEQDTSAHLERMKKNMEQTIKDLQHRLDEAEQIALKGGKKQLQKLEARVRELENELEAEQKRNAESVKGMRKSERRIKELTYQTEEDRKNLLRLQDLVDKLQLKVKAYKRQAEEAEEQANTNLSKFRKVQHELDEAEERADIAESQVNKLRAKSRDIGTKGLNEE
Bovine cardiac myosin, sequence (P85100 whole entry partner): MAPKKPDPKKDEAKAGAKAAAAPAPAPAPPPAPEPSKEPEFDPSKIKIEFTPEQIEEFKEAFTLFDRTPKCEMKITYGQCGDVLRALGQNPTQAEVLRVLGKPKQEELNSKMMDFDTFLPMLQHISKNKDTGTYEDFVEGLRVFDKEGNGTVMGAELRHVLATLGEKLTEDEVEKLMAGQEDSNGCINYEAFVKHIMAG
Bovine cardiac myosin, sequence (Q3SZE5 whole entry partner): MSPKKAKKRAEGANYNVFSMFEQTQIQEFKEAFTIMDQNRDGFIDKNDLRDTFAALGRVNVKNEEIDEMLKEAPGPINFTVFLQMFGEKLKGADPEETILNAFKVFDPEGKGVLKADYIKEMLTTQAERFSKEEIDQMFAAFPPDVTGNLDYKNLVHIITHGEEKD
Summary of the method: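 NADH-coupled (PK/LDH) assay at 25° C: 300 nM bovine cardiac myosin, 10 μM rabbit F-actin, 1 mM ATP, 1 mM PEP, 220 μM NADH, MOPS pH 7.0, 0.5% DMSO. NADH fluorescence was followed for 30 min; Ki values came from 16-point triplicate data (top 50 uM) fitted to a quadratic one-to-one binding model.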

Rabbit skeletal myosin = experiment: Skeletal muscle myosin II actin-activated ATPase assay; assay type: biochemical; details: 20 nM skeletal muscle myosin II; read-out: SKMMII KI
Summary of the method: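 NADH-coupled (PK/LDH) actin-activated ATPase at 25 °C with 20 nM rabbit skeletal myosin II, 10 μM F-actin, 1 mM ATP, 1 mM PEP, 220 μM NADH in MOPS pH 7.0, MgCl2, EGTA, BSA, DTT, 0.5% DMSO. NADH fluorescence followed 30 min; inhibitory constants from 16-point triplicate curves (top 50 uM), quadratic one-to-one fit.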

Row | Structure (SMILES) | Photostability 4 hours [1] [%] | Photostability 24 hours [1] [%] | Photostability Dark (24 h) [1] [%] | Ki (Bovine cardiac myosin) [µM] | Ratio CMMII:NMII Ki/EC50 (Bovine cardiac myosin) | Ki (Rabbit skeletal myosin) [µM]
1 | Cc1cc2c(s1)C(=O)[C@]1(O)CCN(c3ccc(C)c(Cl)c3)C1=N2 [BPN-0026882] | 98.8 | 96.8 | >99 | 21 | 3.6 | 4.5
2 | Cc1ccc2c(c1)C(=O)[C@]1(O)CCN(c3ccc4ncsc4c3)C1=N2 [BPN-0027036] | 90.2 | 24.7 | 97.4 | 22 | 7.3 | 4.9
3 | COc1cc(N2CC[C@@]3(O)C(=O)c4cc(C)c(C(F)(F)F)cc4N=C23)ccn1 [BPN-0027037] | >99 | >99 | >99 | – | NMII-sel | 18
4 | CCc1cc2c(s1)N=C1N(c3ccc(C#N)cc3)CC[C@@]1(O)C2=O [BPN-0027038] | >99 | 98.7 | >99 | 17 | 6.3 | 0.61
5 | Cc1ccc2c(c1)C(=O)[C@]1(O)CCN(c3ccc4cccnc4c3)C1=N2 [BPN-0027039] | 89.8 | 31.3 | 95.9 | 68 | 3.1 | 4.6
6 | Cc1ccc2c(c1)C(=O)[C@]1(O)CCN(c3ccc4ncccc4c3)C1=N2 [BPN-0027040] | 94.8 | 21.4 | 95.7 | 37 | 30.8 | 2.6
7 | Cc1ccc2c(c1)C(=O)[C@]1(O)CCN(c3ccc4ccncc4c3)C1=N2 [BPN-0027042] | 92.7 | 13.8 | >99 | – | NMII-sel | 10
8 | O=C1c2c(sc3c2CCCC3)N=C2N(c3ccccc3)CC[C@@]12O [BPN-0027043] | 97.7 | 72.3 | >99 | – | NMII-sel | 15
9 | Cc1cc2c(cc1C(F)(F)F)N=C1N(c3ccc(C#N)cc3)CC[C@@]1(O)C2=O [BPN-0027071] | >99 | 95.3 | >99 | – | NMII-sel | 20
10 | Cc1cc2c(s1)C(=O)[C@]1(O)CCN(c3ccc(C#N)c(C)c3)C1=N2 [BPN-0027072] | >99 | >99 | >99 | 31 | 3.1 | 5
11 | Cc1cc2c(s1)C(=O)[C@]1(O)CCN(c3cccc(Br)c3)C1=N2 [BPN-0027074] | 95.8 | 93.4 | 94.5 | 77 | 3.7 | 16
12 | Cc1cc2c(cc1C(F)(F)F)N=C1N(c3ccc(Cl)cc3)CC[C@@]1(O)C2=O [BPN-0027080] | 98.1 | 88.1 | >99 | – | NMII-sel | 4.8
13 | Cc1sc2c(c1C)C(=O)[C@]1(O)CCN(c3ccc(I)cc3)C1=N2 [BPN-0027081] | 97.0 | 46.3 | 96.9 | 9 | 8.2 | 0.29
14 | Cc1cc2c(cc1C(F)(F)F)N=C1N(c3ccc4ccoc4c3)CC[C@@]1(O)C2=O [BPN-0027108] | >99 | 97.0 | >99 | – | NMII-sel | 10
15 | Cc1cc2c(cc1C)C(=O)[C@]1(O)CCN(c3ccc(I)cc3)C1=N2 [BPN-0027109] | 82.5 | 29.4 | >99 | 11 | 21.2 | 0.27
16 | Cc1nc2cc(N3CC[C@@]4(O)C(=O)c5cc(C)c(C)cc5N=C34)ccc2o1 [BPN-0027118] | 68.6 | 9.2 | 94.4 | 5.5 | 4.6 | 0.68
17 | Cc1cc2c(cc1C)C(=O)[C@]1(O)CCN(c3ccc4scnc4c3)C1=N2 [BPN-0027121] | 75.6 | 6.5 | 98.6 | 19 | 7.6 | 2.7
18 | Cc1cc2c(cc1C)C(=O)[C@]1(O)CCN(c3ccc4ncsc4c3)C1=N2 [BPN-0027122] | 69.5 | 5.3 | 97.1 | 45 | 26.5 | 5.9
19 | Cn1ncc2c1N=C1N(c3ccccc3)CC[C@@]1(O)C2=O [BPN-0027159] | 89.9 | 22.5 | >99 | – | NMII-sel | 330
20 | Cc1ccc2c(c1)C(=O)[C@]1(O)CCN(c3ccc4ncc(C)cc4c3)C1=N2 [BPN-0027160] | 95.5 | 73.0 | >99 | 30 | 10.3 | 0.2
21 | Cc1cc2cc(N3CC[C@@]4(O)C(=O)c5cc(C)c(C)cc5N=C34)ccc2cn1 [BPN-0027161] | 78.6 | 60.2 | 98.3 | 24 | 21.8 | 0.24
22 | Cc1cc2c(s1)C(=O)[C@]1(O)CCN(c3ccc(C#N)c(Cl)c3)C1=N2 [BPN-0027162] | 98.5 | 95.9 | >99 | 52 | 6.6 | 4.5
23 | Cc1ccc2c(c1)C(=O)[C@]1(O)CCN(c3ccc(CO)c(Cl)c3)C1=N2 [BPN-0027163] | 95.0 | 44.6 | >99 | 21 | 5.0 | 5.9
24 | Cc1cc2c(s1)C(=O)[C@]1(O)CCN(c3ccc4ncccc4c3)C1=N2 [BPN-0027181] | >99 | 99.0 | >99 | 91 | 33.7 | 3.1
25 | Cc1cc2c(cc1F)C(=O)[C@]1(O)CCN(c3ccc4ncsc4c3)C1=N2 [BPN-0027196] | 94.9 | 7.1 | >99 | – | NMII-sel | 12
